Experimental data published in patent US20250228239A1, “MOLECULES HAVING PESTICIDAL UTILITY, AND INTERMEDIATES, COMPOSITIONS, AND PROCESSES, RELATED THERETO” (priority 2024, published 2025).

Tests used:
[1] = system: Beet Armyworm (Spodoptera exigua, LAPHEG); test: Bioassays on Beet Armyworm (BAW), 128-well diet tray assay; format: in vivo; details: Spodoptera exigua; Beet Armyworm; rating class; read-out: BAW
In short: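 One to five second-instar larvae per well on artificial diet surface-treated with 50 μg/cm^2 test molecule (applied in 90:10 acetone-water, dried), eight wells per compound. Trays held vented at 25° C., 14:10 light-dark for five to seven days; percent mortality averaged over the eight wells.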

[2] = system: Cabbage Looper (Trichoplusia ni, TRIPNI); test: Bioassays on Cabbage Looper (CL), 128-well diet tray assay; format: in vivo; details: Trichoplusia ni; Cabbage Looper; rating class; read-out: CL
In short: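 Activity is mean percent mortality over eight wells of second-instar larvae exposed to diet treated at 50 μg/cm^2 for 5–7 days at 25° C.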

Row | Structure (SMILES) | pest or weed control at 50 µg/cm2 [1] | pest or weed control at 50 µg/cm2 [2]
1 | O=C(Nc1ccc(F)c(NC(=O)C2CCO2)c1F)c1cc(NC(=O)[C@H]2[C@H](c3ccc(F)c(C(F)(F)F)c3)C2(Cl)Cl)ccc1Cl (stereo partly drawn) [F1503, N-(3-(2-Chloro-5-((1R,3R)-2,2-dichloro-3-(4-fluoro-3-(trifluoromethyl)phenyl)cyclopropane-1-carboxamido)benzamido)-2,6-difluorophenyl)oxetane-2-carboxamide] | 50 to 100% | 50 to 100%
2 | CC(=O)Nc1c(F)ccc(NC(=O)c2cc(NC(=O)[C@H]3[C@H](c4cc(Cl)c(Cl)c(Cl)c4)C3(Cl)Cl)cc(F)c2Cl)c1F [F1504, N-(3-Acetamido-2,4-difluorophenyl)-2-chloro-5-((1R,3R)-2,2-dichloro-3-(3,4,5-trichlorophenyl)cyclopropane-1-carboxamido)-3-fluorobenzamide] | 50 to 100% | 50 to 100%
3 | Nc1c(F)ccc(NC(=O)c2c(Cl)ccc(NC(=O)[C@H]3[C@H](c4ccc(F)c(Cl)c4)C3(Cl)Cl)c2F)c1F [F1508, N-(3-Amino-2,4-difluorophenyl)-6-chloro-3-((1R,3R)-2,2-dichloro-3-(3-chloro-4-fluorophenyl)cyclopropane-1-carboxamido)-2-fluorobenzamide] | 50 to 100% | 50 to 100%
4 | O=C(Nc1cc(NC(=O)C(F)F)c(F)cc1F)c1cc(NC(=O)[C@H]2[C@H](c3ccc(Cl)c(Cl)c3)C2(Cl)Cl)ccc1F [F1509, 5-((1R,3R)-2,2-Dichloro-3-(3,4-dichlorophenyl)cyclopropane-1-carboxamido)-N-(5-(2,2-difluoroacetamido)-2,4-difluorophenyl)-2-fluorobenzamide] | 50 to 100% | 50 to 100%
5 | O=C(Nc1c(F)ccc(NC(=O)C(F)F)c1F)c1cc(NC(=O)[C@H]2[C@H](c3ccc(Cl)c(Cl)c3)C2(Cl)Cl)ccc1F [F1512, 5-((1R,3R)-2,2-Dichloro-3-(3,4-dichlorophenyl)cyclopropane-1-carboxamido)-N-(3-(2,2-difluoroacetamido)-2,6-difluorophenyl)-2-fluorobenzamide] | 50 to 100% | 50 to 100%
6 | O=C(Nc1c(F)ccc(NC(=O)C(F)(F)F)c1F)c1cc(NC(=O)[C@H]2[C@H](c3ccc(Cl)c(Cl)c3)C2(Cl)Cl)ccc1F [F1513, 5-((1R,3R)-2,2-Dichloro-3-(3,4-dichlorophenyl)cyclopropane-1-carboxamido)-N-(2,6-difluoro-3-(2,2,2-trifluoroacetamido)phenyl)-2-fluorobenzamide] | 50 to 100% | 50 to 100%
7 | CC(=O)Nc1ccc(F)c(NC(=O)c2cc(NC(=O)[C@H]3[C@H](c4ccc(Cl)c(Cl)c4)C3(Cl)Cl)ccc2F)c1F [F1514, N-(3-Acetamido-2,6-difluorophenyl)-5-((1R,3R)-2,2-dichloro-3-(3,4-dichlorophenyl)cyclopropane-1-carboxamido)-2-fluorobenzamide] | 50 to 100% | 50 to 100%
8 | CC(=O)Nc1ccc(F)c(NC(=O)c2cc(NC(=O)[C@H]3[C@H](c4cc(Cl)c(Cl)c(Cl)c4)C3(Cl)Cl)ccc2Cl)c1F [F1515, N-(3-Acetamido-2,6-difluorophenyl)-2-chloro-5-((1R,3R)-2,2-dichloro-3-(3,4,5-trichlorophenyl)cyclopropane-1-carboxamido)benzamide] | 50 to 100% | 50 to 100%
9 | O=C(Nc1c(F)ccc(NC(=O)C(F)(F)F)c1F)c1cc(NC(=O)[C@H]2[C@H](c3cc(Cl)c(Cl)c(Cl)c3)C2(Cl)Cl)ccc1Cl [F1516, 2-Chloro-5-((1R,3R)-2,2-dichloro-3-(3,4,5-trichlorophenyl)cyclopropane-1-carboxamido)-N-(2,6-difluoro-3-(2,2,2-trifluoroacetamido)phenyl)benzamide] | 50 to 100% | 50 to 100%
10 | CC(=O)Nc1cc(NC(=O)c2cc(NC(=O)[C@H]3[C@H](c4cc(Cl)c(Cl)c(Cl)c4)C3(Cl)Cl)ccc2Cl)c(F)cc1F [F1517, N-(5-Acetamido-2,4-difluorophenyl)-2-chloro-5-((1R,3R)-2,2-dichloro-3-(3,4,5-trichlorophenyl)cyclopropane-1-carboxamido)benzamide] | 50 to 100% | 50 to 100%
11 | O=C(Nc1cc(NC(=O)C(F)F)c(F)cc1F)c1cc(NC(=O)[C@H]2[C@H](c3cc(Cl)c(Cl)c(Cl)c3)C2(Cl)Cl)ccc1Cl [F1518, 2-Chloro-5-((1R,3R)-2,2-dichloro-3-(3,4,5-trichlorophenyl)cyclopropane-1-carboxamido)-N-(5-(2,2-difluoroacetamido)-2,4-difluorophenyl)benzamide] | 50 to 100% | 50 to 100%
12 | O=C(Nc1cc(NC(=O)C(F)(F)F)c(F)cc1F)c1cc(NC(=O)[C@H]2[C@H](c3cc(Cl)c(Cl)c(Cl)c3)C2(Cl)Cl)ccc1Cl [F1519, 2-Chloro-5-((1R,3R)-2,2-dichloro-3-(3,4,5-trichlorophenyl)cyclopropane-1-carboxamido)-N-(2,4-difluoro-5-(2,2,2-trifluoroacetamido)phenyl)benzamide] | 50 to 100% | 50 to 100%
13 | CC(=O)Nc1ccc(F)c(NC(=O)c2cc(NC(=O)[C@H]3[C@H](c4cc(Cl)c(Cl)c(Cl)c4)C3(Cl)Cl)cc(F)c2Cl)c1F [F1520, N-(3-Acetamido-2,6-difluorophenyl)-2-chloro-5-((1R,3R)-2,2-dichloro-3-(3,4,5-trichlorophenyl)cyclopropane-1-carboxamido)-3-fluorobenzamide] | 50 to 100% | 50 to 100%
14 | CC(=O)Nc1ccc(F)c(NC(=O)c2cc(NC(=O)[C@H]3[C@H](c4ccc(Cl)c(Cl)c4)C3(Cl)Cl)cc(F)c2Cl)c1F [F1522, N-(3-Acetamido-2,6-difluorophenyl)-2-chloro-5-((1R,3R)-2,2-dichloro-3-(3,4-dichlorophenyl)cyclopropane-1-carboxamido)-3-fluorobenzamide] | 50 to 100% | 50 to 100%
15 | CC(=O)Nc1ccc(F)c(NC(=O)c2cc(NC(=O)[C@H]3[C@H](c4ccc(Cl)c(Cl)c4)C3(Cl)Cl)cc(C)c2Cl)c1F [F1523, N-(3-Acetamido-2,6-difluorophenyl)-2-chloro-5-((1R,3R)-2,2-dichloro-3-(3,4-dichlorophenyl)cyclopropane-1-carboxamido)-3-methylbenzamide] | 50 to 100% | 50 to 100%
16 | CC(=O)Nc1ccc(F)c(NC(=O)c2cc(NC(=O)[C@H]3[C@H](c4cc(Cl)c(Cl)c(Cl)c4)C3(Cl)Cl)cc(C)c2Cl)c1F [F1524, N-(3-Acetamido-2,6-difluorophenyl)-2-chloro-5-((1R,3R)-2,2-dichloro-3-(3,4,5-trichlorophenyl)cyclopropane-1-carboxamido)-3-methylbenzamide] | 50 to 100% | 50 to 100%
17 | CC(=O)Nc1ccc(F)c(NC(=O)c2cc(NC(=O)[C@H]3[C@H](c4ccc(F)c(C(F)(F)F)c4)C3(Cl)Cl)cc(C)c2Cl)c1F [F1525, N-(3-Acetamido-2,6-difluorophenyl)-2-chloro-5-((1R,3R)-2,2-dichloro-3-(4-fluoro-3-(trifluoromethyl)phenyl)cyclopropane-1-carboxamido)-3-methylbenzamide] | 50 to 100% | 50 to 100%
